Test results from patent US20110269790A1, “NOVEL THIENOPYRIDINES AS PHARMACOLOGICALLY ACTIVE AGENTS” (priority 2009, published 2011).
In brackets after ≈: the same amount, converted by molar mass. Entries after “also recorded” stand apart in the source; their conditions may differ. Where two headings read alike, the source gives them in different places.

What was measured:
Colo-205 (Colon cancer) = test: MTT assay, Colo-205; assay type: cell-based; details: for IC50: Homo sapiens, read-out: Colo-205 IC50
Description: (§1) A431 (Skin cancer), Colo-205 (Colon cancer), A549 (Lung cancer) cell lines were obtained from National Center for Cell science (NCCS), Pune, India. DMEM (Dulbeccos Modified Eagles Medium), MTT [3-(4,5-dimethylthiazol-2-yl)-2,5-diphenyl tetrazolium bromide], Trypsin, EDTA were purchased from Sigma Chemicals Co (St. Louis, Mo.), Fetal bovine serum were purchased from Arrow labs, 96 well flat bottom tissue culture plates were purchased from Tarson.
(§2) A431, Colo-205, A549 cell lines were grown as adherent cells in DMEM media supplemented with 10% fetal bovine serum, 100 μg/ml penicillin, 200 μg/ml streptomycin, 2 mM L-glutamine, and culture was maintained in a humidified atmosphere with 5% CO2. Stock solution of 10 mg/ml was prepared for test molecules in DMSO. From the stock, various dilutions were made with sterile water to get required concentration. A431, Colo-205, A549 cell lines were seeded at a density of 1×10^4 cells (cell number was determined by Trypan blue exclusion dye method) per each well in 100 μl of DMEM supplemented with 10% FBS. 12 hrs after seeding, above media was replaced with fresh DMEM supplemented with 10% FBS. Then, 10 μl sample from above stock solutions were added to each well in triplicates which gives final concentration of 100, 50, 25, 10 μg/well. The above cells were incubated for 48 hrs at 37° C. with 5% CO2. After 48 hrs incubation the above media was replaced with 100 μl of fresh DMEM with out FBS and to this 10 μl of MTT (5 mg dissolved in 1 ml of PBS) was added and incubated for 3 hrs at 37° C. with 5% CO2. After 3 hrs of incubation, the above media was removed with multi channel pipette, then 200 μl of DMSO was added to each well and incubated at 37° C. for 15 min. Finally, the plate was read at 570 nm using spectrophotometer (Spectra Max, Molecular devices).

[1] = target: T1, porcine pancreatic α-amylase (Sus scrofa, UniProt P00690); test: α-Amylase inhibition assay; assay type: biochemical; details: 10 mg per ml; for Maltose released: a/b marks the respective control (Control-1 2.147, Control-2 3.429); for inhibition at 10000 µg/mL (stock): 0.05 h, calculated from maltose released vs respective control
T1 construct: α-amylase [EC 3.2.1.1) Type VI B: from porcine pancreas]; purchased Sigma Chemical Co., St Louis, Mo., USA; host or cells: porcine pancreas (natural source)
T1 sequence (P00690 16-511): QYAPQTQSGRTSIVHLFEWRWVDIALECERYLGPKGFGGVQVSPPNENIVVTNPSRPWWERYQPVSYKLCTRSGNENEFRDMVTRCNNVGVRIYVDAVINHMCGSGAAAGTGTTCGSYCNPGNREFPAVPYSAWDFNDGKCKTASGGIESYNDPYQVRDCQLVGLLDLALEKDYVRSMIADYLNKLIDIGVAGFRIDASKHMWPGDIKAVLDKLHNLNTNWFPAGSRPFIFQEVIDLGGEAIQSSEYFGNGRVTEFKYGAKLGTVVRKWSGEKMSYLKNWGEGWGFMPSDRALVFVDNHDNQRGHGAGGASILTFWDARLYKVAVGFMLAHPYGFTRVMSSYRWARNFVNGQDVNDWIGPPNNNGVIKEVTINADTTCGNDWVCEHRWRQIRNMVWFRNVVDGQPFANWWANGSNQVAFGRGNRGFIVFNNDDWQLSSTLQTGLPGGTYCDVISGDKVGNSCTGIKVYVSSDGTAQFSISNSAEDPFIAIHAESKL
Text: (§3) Chemicals: α-Glucosidase [(EC 3.2.1.20) Type I: from bakers yeast], rat intestinal acetone powder (as a source of crude intestinal α-glucosidase), α-amylase [EC 3.2.1.1) Type VI B: from porcine pancreas], p-nitrophenyl α-D-glucopyranoside, 3,5-dinitro salicylic acid, soluble potato starch and 1-deoxyrojirimycine, were purchased from Sigma Chemical Co., St Louis, Mo., USA. Other chemicals of analytical grade were procured from indigenous manufacturers.
a-Amylase Inhibition Assay: The assay method was adopted from Ali et al. (2006) and modified accordingly to suite microplate reading. In brief, 40 μL of test samples (10 mg/mL DMSO) were reconstituted in 160 μL of 20 mM phosphate buffer (pH 6.9) containing 6.7 mM sodium chloride in 2 mL Eppendorf tubes and incubated with 200 μL of porcine pancreatic α-amylase) (4 U/mL prepared in ice cold distilled water) for 5 min. The reaction was started by the addition of 400-μL soluble potato starch solution (0.5% w/v in 20 mM phosphate buffer, pH 6.9). Exactly 3 min after incubation, 400 μL DNS color reagent (1.0 g of 3,5-dinitrosalicylic acid, 30 g of sodium potassium tartrate and 20 mL of 2 N NaOH to a final volume of 100 mL in distilled water) was added. Closed tubes were placed in a water bath (85-90° C.) for 10 min to develop color and cooled thereafter. 50 μL of reaction mixtures was diluted with 175 μL of distilled water in a 96-well microplate. α-Amylase activity was determined by measuring the absorbance of the mixture at 540 nm spectrophotometrically as above. Individual blanks were prepared to correct for the background absorbance due to test samples. In this case DNS solution was added in tubes before addition of substrate. The percentage inhibition of enzyme activity was calculated as above. All the tests were run in duplicate in this assay.

[2] = tested on: crude intestinal α-glucosidase; test: In-vitro mammalian (rat intestinal) α-glucosidase inhibition assay; assay type: biochemical; details: for Mammalian α Glucosidase Inhibition (Mean ± S.E): highest concentration 5 mg/ml; for IC50: mammalian α-glucosidase, dose response study
Text: as §3
In-vitro a-Glucosidase Inhibition Assay: Yeast and intestinal a-glucosidase inhibitory activities were determined as per reported methods (Babu et al., 2004; Mc Dougall et al., 2005). Rat intestinal acetone powder in normal saline (100% w/v) was sonicated properly and the supernatant was used as a source of crude intestinal a-glucosidase after centrifugation. In brief, 20 μl, of test samples (100 mg/ml DMSO solution) were reconstituted in 100 μl of 100 mM-Phosphate buffer (pH 6.8) in a 96-well microplate and incubated with 50 μl yeast a-glucosidase (0.76 μ/ml in same buffer) or crude intestinal a-glucosidase for 5 min before 50-μl substrate (5 mM, […] prepared in same buffer) was added. Release of p-nitrophenyol was measured at 405 nm spectrophotometrically (Spectra Mas Plus 384, Molecular Device corporation, Sunnyvale, Calif., USA) 5 min after incubation with substrate, individual blank for test samples were prepared to correct background absorbance where the substrate was replaced with 50 μl of buffer. The control sample contained 20 μl DMSO in place of test samples. The percentage of enzyme inhibition was calculated as (A−B/A)×100 where A is represents the absorbance of the control without test samples, and B represents the absorbance in the presence of test samples. […] The IC50 values were calculated by applying logarithmic regression analysis from the mean inhibitory values.

A549 (Lung cancer) = test: MTT assay, A549; assay type: cell-based; details: Homo sapiens, read-out: A549 IC50
Description: as §1, §2

Compound	IC50 (Colo-205 (Colon cancer); COLO 205, MTT, 48 hrs)	Maltose released [1]	inhibition at 10000 µg/mL (stock) [1]	Mammalian α Glucosidase Inhibition (Mean ± S.E) [2]	IC50 (A549 (Lung cancer); A549, MTT, 48 hrs)	Alpha amylase inhibitory activity (in words) [1]	Mammalian α-glucosidase inhibitory activity (in words) [2]	Colo-205 IC50 (Colo-205 (Colon cancer); MTT, 48 hrs)	IC50 (Colo-205 (Colon cancer); COLO 205, 48 h)	IC50 (A549 (Lung cancer); A549, 48 h)	Mammalian α-glucosidase inhibition (Mean ± S.E) ([2]; 0.039063 mg/ml)	Mammalian α-glucosidase inhibition (Mean ± S.E) ([2]; 0.078125 mg/ml)	Mammalian α-glucosidase inhibition (Mean ± S.E) ([2]; 0.15625 mg/ml)	Mammalian α-glucosidase inhibition (Mean ± S.E) ([2]; 0.3125 mg/ml)	Mammalian α-glucosidase inhibition (Mean ± S.E) ([2]; 0.625 mg/ml)	Mammalian α-glucosidase inhibition (Mean ± S.E) ([2]; 1.25 mg/ml)	Mammalian α-glucosidase inhibition (Mean ± S.E) ([2]; 2.5 mg/ml)	Mammalian α-glucosidase inhibition (Mean ± S.E) ([2]; 5 mg/ml)	IC50 [2]
Cc1sc2nc3c(c(N)c2c1C)CCC3 [BN-1, 2,3-dimethyl-6,7-dihydro-5H-cyclopenta[b]thieno[3,2-e]pyridin-4-amine]	245 µg/mL (≈ 1120 µM)	2.20 mg/mL	-3.12%	0.0 ± 0.0%	190 µg/mL (≈ 870 µM)														
Cc1sc2nc3c(c(N)c2c1C)CCCC3 [BN-2, 2,3-dimethyl-5,6,7,8-tetrahydrothieno[2,3-b]quinolin-4-amine]	117 µg/mL (≈ 504 µM)	2.095 mg/mL	39.7%	40.0 ± 2.5%	50.1 µg/mL (≈ 216 µM)	strong inhibitory activity; also recorded: mild inhibition	moderate inhibitory activity												
Cc1sc2nc3c(c(N)c2c1C)CCCCC3 [BN-4, 2,3-dimethyl-6,7,8,9-tetrahydro-5H-cyclohepta[b]thieno[3,2-e]pyridin-4-amine]		3.496 mg/mL	-2.01%	38.37 ± 1.0%	36.3 µg/mL (≈ 147 µM)		moderate inhibitory activity	No activity											
Nc1c2c(nc3sc4c(c13)CCCC4)CCC2 [BN-5, 2,3,6,7,8,9-Hexahydro-1H-benzo[4,5]thieno[2,3-b]cyclopenta[e]pyridin-10-amine]		3.226 mg/mL	4.85%	0.0 ± 0.0%	144 µg/mL (≈ 591 µM)			No activity											
Nc1c2c(nc3sc4c(c13)CCCC4)CCCC2 [BN-6, 1,2,3,4,7,8,9,10-Octahydrobenzo[4,5]thieno[2,3-b]quinolin-11-amine]	162 µg/mL (≈ 627 µM)	2.548 mg/mL	26.2%	19.92 ± 1.27%	33.8 µg/mL (≈ 131 µM)	mild inhibition													
CC1CCc2c(nc3sc4c(c3c2N)CCCC4)C1 (stereo not shown) [BN-7, 8-Methyl-1,2,3,4,7,8,9,10-octahydrobenzo[4,5]thieno[2,3-b]quinolin-11-amine]	70.7 µg/mL (≈ 260 µM)	2.163 mg/mL	-0.765%	50.19 ± 0.93%	49 µg/mL (≈ 180 µM)		moderate inhibitory activity												
Nc1c2c(nc3sc4c(c13)CCCC4)CCCCC2 [BN-8, 2,3,4,7,8,9,10,11-Octahydro-1H-benzo[4,5]thieno[2,3-b]cyclohepta [e]pyridin-12-amine]		0.913 mg/mL		10.76 ± 0.92%		strong inhibitory activity			70.8 µg/mL (≈ 260 µM)	186 µg/mL (≈ 683 µM)									
Nc1c2c(nc3sc4c(c13)CCC4)CCC2 [BN-13, 1,2,3,6,7,8-hexahydrocyclopenta [b]cyclopenta[4,5] thieno[3,2-e]pyridin-9-amine]		1.278 mg/mL		76.13%		strong inhibitory activity	significant inhibitory activity		144 µg/mL (≈ 625 µM)	83.2 µg/mL (≈ 361 µM)	10.06 ± 1.36%	27.07 ± 1.93%	34.89 ± 2.28%	44.87 ± 1.62%	52.97 ± 1.47%	67.24 ± 1.08%	71.39 ± 1.82%	76.13 ± 0.03%	509 µg/mL (≈ 2210 µM)
Nc1c2c(nc3sc4c(c13)CCC4)CCCC2 [BN-14, 2,3,6,7,8,9-Hexahydro-1H-cyclopenta[4,5]thieno[2,3-b]quinolin-10-amine]	223 µg/mL (≈ 913 µM)	2.210 mg/mL	-3.06%	58.37%	79.4 µg/mL (≈ 325 µM)		significant inhibitory activity				7.79 ± 3.11%	20.75 ± 2.19%	26.76 ± 1.37%	34.49 ± 1.19%	40.62 ± 0.63%	51.56 ± 0.74%	54.74 ± 1.01%	58.37 ± 2.20%	1560 µg/mL (≈ 6380 µM)
